How the values were obtained:
[1] = Rat cassette dosing pharmacokinetics (IV and PO); format: in vivo; conditions: male SD rats, plasma
[2] = molecular target: hERG (Homo sapiens (Human), UniProt Q12809); experiment: hERG inhibition, whole-cell patch clamp; format: cell-based; conditions: HEK293 cells stably transfected with hERG, tail current at -50 mV
Experimental: For hERG inhibition assays, the cells used were HEK293 cells stably transfected with hERG (cell line obtained from Cytocentrics Inc. 3463 Magic Drive San Antonio, Tex. 78229). Composition of External Solution: NaCl, 137 mM; KCl, 4 mM; MgCl2, 1.0 mM; CaCl2, 1.8 mM; HEPES 10 mM; Dextrose 11 mM; Adjusted to a pH of 7.4 with NaOH. Composition of Internal Solution: KCl, 130.0 mM; MgCl2, 1.0 mM; HEPES, 5.0 mM; EGTA, 5.0 mM; NaCl 7.0 mM. Adjusted to a pH of 7.2 using KOH. Test Concentrations: 0.1, 1, 10, 100 μM. Vehicle: DMSO. Experiments were performed at 34+/−1° C. Current was recorded using the whole-cell patch clamp technique on the Cytopatch automated platform. hERG current was elicited with the following voltage protocol: hERG current amplitude was measured as the peak current at −50 mV (tail current). […] Each cell served as its own control. Data are presented as the IC50 calculated by non-linear regression analysis.

[3] = system: CYP1A2, CYP2C9, CYP2C19, CYP3A4, CYP2D6; experiment: Cyp inhibition in human liver microsomes (all isozymes); format: in vitro ADME
Experimental: For Cyp inhibition, human liver microsomes from BD Gentest were incubated with Compound 028 or Compound 032 (10, 3.33, 1.11, 0.37, 0.12, 0.04, 0.01 μM) and substrate (CYP1A2: Phenacetin at 30 μM; CYP2C9: Diclofenac at 10 μM; CYP2C19: S-Mephenytoin at 35 μM; CYP3A4: Midazolam at 5 μM and Testosterone at 80 μM; CYP2D6: Bufuralol at 10 μM) for the following incubation times: CYP1A2, 2C9, 2D6: 10 minutes, 37° C.; CYP2C19: 45 minutes, 37° C.; CYP3A4: 5 minutes, 37° C. Substrate conversion was measured by liquid chromatography/mass spectrometry/mass spectrometry (LC/MS/MS). Inhibition was calculated by curve fitting in Graph Pad Prism.

[4] = molecular target: HDAC1 (Homo sapiens (Human), UniProt Q13547); experiment: HDAC enzyme assay; format: biochemical; conditions: 10 min preincubation, 16 μM substrate
HDAC1, sequence (Q13547 whole entry): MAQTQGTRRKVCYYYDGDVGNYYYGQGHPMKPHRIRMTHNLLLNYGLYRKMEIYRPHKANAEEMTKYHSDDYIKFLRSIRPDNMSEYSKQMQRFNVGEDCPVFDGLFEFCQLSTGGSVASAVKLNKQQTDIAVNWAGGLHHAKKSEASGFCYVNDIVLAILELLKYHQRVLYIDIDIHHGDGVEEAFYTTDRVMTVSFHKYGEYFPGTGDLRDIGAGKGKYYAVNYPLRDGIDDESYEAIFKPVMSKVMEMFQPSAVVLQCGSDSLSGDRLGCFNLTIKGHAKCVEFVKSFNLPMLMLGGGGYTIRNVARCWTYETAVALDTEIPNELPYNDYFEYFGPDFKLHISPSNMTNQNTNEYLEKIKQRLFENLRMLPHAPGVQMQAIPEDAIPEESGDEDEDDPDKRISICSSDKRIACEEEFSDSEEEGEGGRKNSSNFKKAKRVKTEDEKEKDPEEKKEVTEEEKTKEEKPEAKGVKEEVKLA

hERG, sequence (Q12809 whole entry): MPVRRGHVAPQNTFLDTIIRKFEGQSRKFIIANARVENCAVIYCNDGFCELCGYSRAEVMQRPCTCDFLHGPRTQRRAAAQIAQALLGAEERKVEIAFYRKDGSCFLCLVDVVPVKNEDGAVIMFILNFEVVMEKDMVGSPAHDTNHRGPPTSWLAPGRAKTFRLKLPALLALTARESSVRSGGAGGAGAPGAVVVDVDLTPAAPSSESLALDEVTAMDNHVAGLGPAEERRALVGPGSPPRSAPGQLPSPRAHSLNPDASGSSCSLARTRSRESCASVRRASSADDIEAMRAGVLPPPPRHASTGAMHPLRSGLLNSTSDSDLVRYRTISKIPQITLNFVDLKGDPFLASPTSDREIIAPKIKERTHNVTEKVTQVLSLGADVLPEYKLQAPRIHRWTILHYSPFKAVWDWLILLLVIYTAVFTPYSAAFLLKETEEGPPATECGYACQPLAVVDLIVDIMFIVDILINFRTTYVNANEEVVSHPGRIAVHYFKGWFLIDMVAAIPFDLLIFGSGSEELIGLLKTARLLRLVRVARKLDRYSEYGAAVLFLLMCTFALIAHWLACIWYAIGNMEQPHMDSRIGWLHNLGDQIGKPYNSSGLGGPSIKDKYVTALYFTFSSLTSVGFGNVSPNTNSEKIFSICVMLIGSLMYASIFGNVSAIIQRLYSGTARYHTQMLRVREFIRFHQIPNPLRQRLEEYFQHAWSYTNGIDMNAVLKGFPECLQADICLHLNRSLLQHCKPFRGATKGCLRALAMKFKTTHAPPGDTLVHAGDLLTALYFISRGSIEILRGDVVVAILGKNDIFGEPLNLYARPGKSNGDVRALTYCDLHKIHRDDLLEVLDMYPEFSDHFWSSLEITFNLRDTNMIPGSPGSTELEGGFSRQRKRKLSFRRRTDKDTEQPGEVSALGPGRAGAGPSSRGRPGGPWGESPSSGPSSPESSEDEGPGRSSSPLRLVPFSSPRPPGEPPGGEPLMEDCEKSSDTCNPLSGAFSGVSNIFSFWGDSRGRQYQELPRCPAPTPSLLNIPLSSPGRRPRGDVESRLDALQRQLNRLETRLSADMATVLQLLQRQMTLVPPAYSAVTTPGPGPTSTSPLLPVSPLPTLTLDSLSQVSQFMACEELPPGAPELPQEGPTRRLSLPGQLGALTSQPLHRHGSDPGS

Row | AUC ([1]; PO 5 mg/kg) [µg·h/mL] | Cmax ([1]; PO 5 mg/kg) [µg/mL] | half-life ([1]; PO 5 mg/kg, read-out: PO T1/2 (converted)) [h] | bioavailability ([1]; 5 mg/kg, oral AUC to IV AUC, dose adjusted) [%] | IC50 [3] [µM] | IC50 [4] [µM] | SMILES | IC50 [2] [µM]
1 | 15.3 | 0.944 | 12.8 | 170 | > 10 |  | CN1CCN(c2ncc(C(=O)Nc3cc(-c4cccs4)ccc3N)s2)CC1 [Compound 030] | 70
2 |  |  |  |  |  | < 0.01 | Nc1ccc(-c2ccccc2)cc1NC(=O)c1ncc(N2CCNCC2)s1 [Compound 049] | 

— patent US10774056B2, “Substituted piperazines as selective HDAC1,2 inhibitors” (REGENACY PHARMACEUTICALS, LLC, priority 2016, dated 2020)
